Structures can show the parent of a compound that is named as a salt.
Key:
aromatase = biological target: T1, aromatase (Rattus norvegicus, UniProt P22443); assay: Aromatase inhibition in the rat ovarian microsome assay (modified isolated rat ovarian microsome method of Brodie et al.); type: biochemical; conditions: rat ovarian microsomes; substrate (androstenedione) concentration 0.1 μM
T1 construct: ovarian microsomes are obtained from rats treated with pregnant mares serum gonadotropin; from tissue; host or cells: ovarian microsomes of rats treated with pregnant mares serum gonadotropin
T1 sequence (P22443 1-508): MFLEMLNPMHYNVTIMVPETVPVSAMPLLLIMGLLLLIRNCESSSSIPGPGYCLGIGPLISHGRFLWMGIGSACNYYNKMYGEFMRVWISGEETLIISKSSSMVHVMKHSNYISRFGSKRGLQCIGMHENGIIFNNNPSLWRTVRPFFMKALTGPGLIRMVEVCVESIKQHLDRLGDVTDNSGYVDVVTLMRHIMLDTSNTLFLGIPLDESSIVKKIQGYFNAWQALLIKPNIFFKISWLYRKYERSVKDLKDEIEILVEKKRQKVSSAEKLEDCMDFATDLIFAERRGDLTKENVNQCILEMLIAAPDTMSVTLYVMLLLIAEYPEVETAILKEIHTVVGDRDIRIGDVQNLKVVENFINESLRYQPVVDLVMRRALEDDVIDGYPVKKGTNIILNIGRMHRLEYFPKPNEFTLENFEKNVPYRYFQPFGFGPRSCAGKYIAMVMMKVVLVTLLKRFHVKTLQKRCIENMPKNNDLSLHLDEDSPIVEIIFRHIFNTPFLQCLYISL
Method: In this test system, ovarian microsomes are obtained from rats treated with pregnant mares serum gonadotropin. Test compounds are added to reaction vials containing 0.1 μM 4-androstene-3,17-dione, 100,000 dpm 1,2[^3 H]-androstenedione, the microsomes and a NADPH generating system. The concentrations of the inhibitors tested ranged between 0.005 and 10 μM.

[1] = test system: estrogen synthesis (aromatization); assay: Estrogen Synthesis Inhibition in Rats (uterine weight and ovarian steroid concentration); type: in vivo, immature female Wistar rats; conditions: 7 days; for Mean Uterine Weight: testosterone propionate-treated, significantly different from testosterone-treated control (163.88); for Mean Steroid Concentration, estriol / Mean Steroid Concentration, estradiol: ovary; for Mean Steroid Concentration, estriol: testosterone-treated control 0.68; for Mean Steroid Concentration, estradiol: testosterone-treated control 1.29
Method: Test compounds were administered for seven days as a component of the diet. Control animals received diet without the test compound. Beginning on the fourth day of the test, all animals treated with the test compound and one half of the control animals were given a subcutaneous injection of 1.0 mg of testosterone propionate in corn oil. The remaining control animals received only an equivalent volume of corn oil.
After two hours, the animals were killed by decapitation. Uteri were isolated, trimmed of extraneous connective tissue, and weighed.
The ovarian steroids were extracted with 1.5 ml of 9:1 (v/v) toluene/ethanol to which had been added 25 to 100 mcg. each of unlabelled estradiol, estriol, and estrone, and approximately 1000 dpm of [^14 C]-estradiol. The samples were vortexed, centrifuged at 500×g for 10 minutes, and the organic phase was transferred to a conical vial. Two additional extractions were performed on the residue in the same way. The pooled organic extracts were evaporated for subsequent thin-layer chromatography.
Ovarian proteins were precipitated by the addition of 5.0 ml of ethanol to the remaining aqueous phase. After an overnight incubation at 4° C., the samples were centrifuged at 1500×g for 10 minutes. The supernatant was discarded, and the pellet was dissolved in 0.3 N potassium hydroxide.
The organic residue from each above extraction was redissolved in 9:1 (v/v) dichloromethane/methanol. The solution of each sample was applied to separate silica gel thin layer chromatography plates which contained a fluorescent indicator. The plates were developed in the first dimension with 160:38:1.5:0.5 (v/v/v/v) dichloromethane/ethyl acetate/methanol/acetic acid to within 3 cm of the top of the plate. After air-drying, the plate was developed in the second dimension with 180:19:1 (v/v/v) dichloromethane/methanol/ammonium hydroxide. The plate was air-dried and viewed under 254 nm UV light.
The visible spots were marked, and the plates were sprayed with primulin (0.001% in 4:1 v/v acetone/water) according to the method of Wright, J. Chromatography, 59, 220 (1971) which allowed for the identification of additional steroids under 365 nm UV light. The spots were scraped from the plate using a glass wool plugged Pasteur pipet attached to a vacuum line. The steroids were eluted directly into scintillation vials by the addition of 0.2 ml of dichloromethane followed by two washes each of 2.0 ml of methanol. The organic solvent was evaporated and 10.0 ml of scintillation fluid (Beckman Ready Solv-NA) was added to the vials. Samples were analyzed by liquid scintillation spectrometry. Corrections were made based on the recoveries of the [^14 C]-steroid. Steroid concentrations are expressed as femtomoles per milligram protein.

[2] = test system: DMBA-induced mammary tumors; assay: DMBA-Induced Mammary Tumor Inhibition; type: in vivo, female Sprague-Dawley rats; conditions: 300 ppm in diet (approx. 30 mg/kg/day)
Method: Mammary tumors were produced in female Sprague-Dawley rats which were 50-60 days old by the gavage administration of 20 mg of 7,12-dimethylbenz[a]anthracene (DMBA). About six weeks after DMBA administration, the mammary glands were palpated at weekly intervals for the appearance of tumors. Whenever one or more tumors appeared and were measurable in an animal, that animal was selected for experimentation. […] Each control and test group contained 8 animals. The test compound was administered mixed into the food at a concentration of 300 ppm (corresponding to an appropriate daily dose of 30 mg/kg). The experiment included a group of control rats having tumors and were given food without the compound admixed. […] The area of each tumor was calculated by multiplying the shortest and longest diameters of the tumor. The treatment and measurement of animals continued for 5 weeks at which time the final areas of the tumors were determined.

[3] = 30 ppm in feed (approx. 3 mg/kg/day)

Row | SMILES | EC50 (aromatase) [nM] | also measured
1 | OC(Cc1ccccc1)(Cc1ccccc1)c1cccnc1 [α,α-dibenzyl-3-pyridinemethanol] | 2850 | –
2 | OC(c1ccc(Cl)cc1)c1cccnc1 (stereo not drawn) [α-(3-pyridyl)-4-chlorobenzyl alcohol] | 2400 | –
3 | OC(c1cccnc1)(c1ccc(Cl)cc1Cl)c1ccc(Cl)cc1Cl [α,α-bis(2,4-dichlorophenyl)-3-pyridinemethanol hydrochloride] | 4000 | –
4 | OC(Cc1ccc(Cl)cc1)(c1cccnc1)c1cccc(Cl)c1 (stereo not drawn) [α-(4-chlorobenzyl)-α-(3-chlorophenyl)-3-pyridinemethanol] | 3200 | –
5 | Cc1ccc(C(O)(c2ccccc2)c2cccnc2)cc1 (stereo not drawn) [α-(4-methylphenyl)-α-phenyl-3-pyridinemethanol] | 2400 | –
6 | O=[N+]([O-])c1ccc(Cc2ccncc2)cc1 [4-(4-nitrobenzyl)pyridine] | 980 | –
7 | Cc1cncc(C(O)(c2ccccc2)c2ccc(Cl)cc2)c1 (stereo not drawn) [α-(4-chlorophenyl)-5-methyl-α-phenyl-3-pyridinemethanol] | 4100 | –
8 | CCCN(CCC)C(c1ccc(Cl)cc1)c1cccnc1 (stereo not drawn) [α-(4-chlorophenyl)-N,N--di(n-propyl)-3-pyridylmethylamine] | 150 | –
9 | Clc1ccccc1C(c1ccncc1)c1ccccc1Cl [4-bis(2-chlorophenyl)methylpyridine] | 490 | –
10 | OC(c1ccc(Cl)cc1)(c1ccc(Cl)cc1)c1cccnc1 [α,α-bis(4-chlorophenyl)-3-pyridinemethanol] | – | Mean Uterine Weight ([1]; 30 ppm in feed (approx. 3 mg/kg/day), 4 animals, p < 0.05): 127.25 mg; Mean Uterine Weight ([1]; 300 ppm in feed (approx. 30 mg/kg/day), 5 animals, p < 0.05): 87.80 mg; Mean Steroid Concentration, estriol [1, 3]: 0.70 femtomoles per milligram of protein; Mean Steroid Concentration, estradiol [1, 3]: 1.04 femtomoles per milligram of protein; Mean Steroid Concentration, estriol ([1]; 300 ppm in feed (approx. 30 mg/kg/day)): 0.39 femtomoles per milligram of protein; Mean Steroid Concentration, estradiol ([1]; 300 ppm in feed (approx. 30 mg/kg/day), p < 0.05): 0.36 femtomoles per milligram of protein; Mean Tumor Area, Finish ([2]; after 5 weeks, control 1140): 433 mm^2; Mean Tumor Area, Start ([2]; start of 5-week test, control 73.9): 108.8 mm^2
11 | OC(Cc1ccc(Cl)cc1Cl)(Cc1ccc(Cl)cc1Cl)c1cccnc1 [α,α-bis(2,4-dichlorobenzyl)-3-pyridinemethanol hydrochloride] | 1850 | –
12 | OC(Cc1ccc(Cl)cc1)(c1ccncc1)c1ccc(Cl)cc1 (stereo not shown) [1,2-bis(4-chlorophenyl)-1-(4-pyridyl)ethanol] | 185 | –
13 | OC(c1ccc(Cl)cc1)(c1cccnc1)c1ccc2c(c1)OCO2 (stereo not drawn) [α-(4-chlorophenyl)-α-(3,4-methylenedioxyphenyl)-3-pyridinemethanol] | 500 | –
14 | OC(Cc1ccc(Cl)cc1Cl)(c1ccc(Cl)cc1)c1cccnc1 (stereo not drawn) [α-(2,4-dichlorobenzyl)-α-(4-chlorophenyl)-3-pyridinemethanol hydrochloride] | > 5000 | –
15 | CN(C)c1ccc(C(O)(c2ccncc2)c2ccc(N(C)C)cc2)cc1 [α,α-bis[4-(dimethylamino)phenyl]-4-pyridinemethanol] | 3400 | –
16 | CCCSC(c1ccc(Cl)cc1)(c1ccc(Cl)cc1)c1cccnc1 [3-[α-(4-chlorophenyl)-α-(n-propylthio)-4-chlorobenzyl]pyridine] | 1750 | –
17 | OC(c1cccnc1)(c1cccc(Br)c1)c1cccc(Br)c1 [α,α-bis(3-bromophenyl)-3-pyridinemethanol] | 2200 | –
18 | OC(Cc1ccc(Cl)c(Cl)c1)(c1ccc(Cl)cc1)c1cccnc1 (stereo not drawn) [α-(3,4-dichlorobenzyl)-α-(4-chlorophenyl)-3-pyridinemethanol] | 3150 | –
19 | OC(Cc1ccc(Cl)cc1)(Cc1ccc(Cl)cc1Cl)c1cccnc1 (stereo not drawn) [α-(4-chlorobenzyl)-α-(2,4-dichlorobenzyl)-3-pyridinemethanol] | 2400 | –
20 | OC(c1ccccc1)(c1cccnc1)c1ccc(F)cc1F (stereo not drawn) [α-(2,4-difluorophenyl)-α-phenyl-3-pyridinemethanol] | 2050 | –
21 | OC(Cc1ccc(Cl)cc1)(c1ccc(Cl)cc1)c1cccnc1 (stereo not drawn) [α-(4-chlorobenzyl)-α-(4-chlorophenyl)-3-pyridinemethanol] | 2900 | –
22 | OC(Cc1ccc(Cl)cc1)(Cc1ccc(Cl)cc1)c1cccnc1 [α,α-bis(4-chlorobenzyl)-3-pyridinemethanol] | > 5000 | –
23 | Clc1ccc(Cc2ccncc2)cc1 [4-(4-chlorobenzyl)pyridine] | 550 | –
24 | OC(Cc1ccc(Cl)cc1Cl)(c1ccc(Cl)cc1)c1cccnc1 (stereo not drawn) [α-(2,4-dichlorobenzyl)-α-(4-chlorophenyl)-3-pyridinemethanol] | 3200 | –

Reference: patent publication US4757076A, “Method of inhibiting aromatase” (Eli Lilly and Company, priority 1984, dated 1988)
